# Experimental data from patent US9359372B2, “Hexahydrodibenzo[a,g]quinolizine compound, preparation method thereof, pharmaceutical composition and use thereof” (SHANGHAI INSTITUTE OF MATERIA MEDICA, CHINESE ACADEMY OF …, priority 2011, dated 2016).
# Columns and labels:
# dopamine D1 receptor = dopamine D1 receptor (Macaca mulatta (Rhesus macaque), UniProt O77680); test: Affinity on dopamine D1 receptor, competition with [3H] SCH23390; type: binding; parameters: D1 receptor inhibition ratio (%): concentration or dose not given beside the values; settings: for affinity on dopamine D1 receptor (in words): summary of the tables
# Sequence of dopamine D1 receptor (O77680 whole entry): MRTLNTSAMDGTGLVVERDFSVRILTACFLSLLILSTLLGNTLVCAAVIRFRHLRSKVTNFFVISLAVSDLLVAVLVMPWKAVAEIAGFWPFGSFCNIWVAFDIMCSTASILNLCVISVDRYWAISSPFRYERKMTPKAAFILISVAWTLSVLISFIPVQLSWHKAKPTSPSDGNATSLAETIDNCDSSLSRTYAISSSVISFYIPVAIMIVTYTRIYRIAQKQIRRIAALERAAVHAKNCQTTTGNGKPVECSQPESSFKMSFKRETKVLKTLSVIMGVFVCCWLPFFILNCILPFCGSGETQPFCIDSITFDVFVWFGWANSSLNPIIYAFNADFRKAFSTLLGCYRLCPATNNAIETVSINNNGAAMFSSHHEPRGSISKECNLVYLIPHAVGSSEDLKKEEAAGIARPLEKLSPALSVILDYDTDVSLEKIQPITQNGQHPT
# Description: (§1) (1). Determination of the Affinity of Hexahydrodibenzo[a,g]Quinolizine Compound of General Formula I and Derivatives Thereof on Dopamine D1, Dopamine D2, 5-HT1A, and 5-HT2A Receptor.
# (§2) 1) The Experimental Method
# (§3) Different concentrations (10^−5 M-10^−11 M) of the compound of the invention and corresponding isotope receptor ligand as well as receptor protein were loaded into the reaction tube and incubated in 30° C. water bath for 60 minutes. The reaction was terminated in a refrigerator. The reaction mixture was put in a Millipore filter (millipore) cell sample collector, filtered through suction filtration using GF/C glass fiber filter paper, and dried. The resulting sample was placed into 0.5 mL tube. 500 μL liquid scintillation fluid was added and intensity of radioactivity was determined by counting.
# (§4) (1) Construction of receptor and materials for cell culture: Escherichia coli. DH5α strain; insect virus transfer vector pVL1393 plasmid; BaculoGold linear Chinese baculovirus DNA, purchased from ParMingen company; mkD1RcDNA; rD2R cDNA; various restriction endonucleases, TaqDNA polymerase, T4 ligase, etc., LB medium; insect cell culture TNM-FH.
# (§5) (2) the Experimental Materials for Receptor Binding
# (§6) Firstly, the above […] are dissolved in DMSO and then diluted with double distilled water to the appropriate concentration (10^−5 M-10^−11 M).
# (§7) (+) Butaclamo purchased from RBI company, GF/C glass fiber filter paper purchased from Whatman Co., scintillation fluid (dopamine D1, D2 receptors)/liposoluble scintillation fluid (5-HT1A, 5-HT2A receptor), Beckman LS-6500 multi-function liquid scintillation counter.
# D2 dopamine receptor = D2 dopamine receptor (Rattus norvegicus (Rat), UniProt P61169); test: Affinity on dopamine D2 receptor, competition with [3H] Spiperone; type: binding; parameters: D2 receptor inhibition ratio (%): concentration or dose not given beside the values; settings: for affinity on dopamine D2 receptor (in words): summary of the tables
# Sequence of D2 dopamine receptor (P61169 whole entry): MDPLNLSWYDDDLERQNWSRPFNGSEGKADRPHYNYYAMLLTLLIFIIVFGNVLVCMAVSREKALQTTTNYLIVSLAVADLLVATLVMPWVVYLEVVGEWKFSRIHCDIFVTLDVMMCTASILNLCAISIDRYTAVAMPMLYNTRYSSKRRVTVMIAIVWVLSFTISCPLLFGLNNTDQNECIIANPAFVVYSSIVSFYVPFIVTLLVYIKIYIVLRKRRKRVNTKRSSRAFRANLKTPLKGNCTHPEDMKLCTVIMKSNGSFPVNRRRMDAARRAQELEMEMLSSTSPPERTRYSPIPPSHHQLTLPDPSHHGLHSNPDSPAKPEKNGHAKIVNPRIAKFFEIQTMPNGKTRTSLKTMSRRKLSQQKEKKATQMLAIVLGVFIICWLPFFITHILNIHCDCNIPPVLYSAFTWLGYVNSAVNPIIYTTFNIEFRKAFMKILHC
# Description: as §1, §2, §3, §4, §5, §6, §7
# D1 dopamine receptors = D1 dopamine receptors (Homo sapiens (Human), UniProt P21728); test: Radioligand binding assay, D1 receptor, HEK293T membrane homogenates; settings: HEK293T membranes, [3H]SCH23390
# Sequence of D1 dopamine receptors (P21728 whole entry): as the sequence (O77680 whole entry) above, with I311N counted along it
# Description: (§8) The affinity of compounds to D1 and D2 dopamine receptors were determined by competition binding assays. Membrane homogenates of HEK293T cells were stably transfected with D1, or D2 receptors. […] The reaction was started by addition of membranes ([…]) and stopped by rapid filtration through Whatman GF/B glassfiber filter and subsequently washed with cold buffer (50 mM Tris, 5 mM EDTA, pH 7.4) using a Brandel 24-well cell harvester. Scintillation cocktail was added and the radioactivity was determined in a MicroBeta liquid scintillation counter. The IC50 and Ki values were calculated by nonlinear regression (PRISM, Graphpad, San Diego, Calif.) using a sigmoidal function.
# dopamine D2 receptor [1] = molecular target: T1, dopamine D2 receptor (Homo sapiens (Human), UniProt P14416); test: Radioligand binding assay, D2 receptor, HEK293T membrane homogenates; parameters: D2 Inhibition (%): concentration or dose not given beside the values; settings: HEK293T membranes, [3H]Spiperone
# T1 sequence (P14416 whole entry, species assumed): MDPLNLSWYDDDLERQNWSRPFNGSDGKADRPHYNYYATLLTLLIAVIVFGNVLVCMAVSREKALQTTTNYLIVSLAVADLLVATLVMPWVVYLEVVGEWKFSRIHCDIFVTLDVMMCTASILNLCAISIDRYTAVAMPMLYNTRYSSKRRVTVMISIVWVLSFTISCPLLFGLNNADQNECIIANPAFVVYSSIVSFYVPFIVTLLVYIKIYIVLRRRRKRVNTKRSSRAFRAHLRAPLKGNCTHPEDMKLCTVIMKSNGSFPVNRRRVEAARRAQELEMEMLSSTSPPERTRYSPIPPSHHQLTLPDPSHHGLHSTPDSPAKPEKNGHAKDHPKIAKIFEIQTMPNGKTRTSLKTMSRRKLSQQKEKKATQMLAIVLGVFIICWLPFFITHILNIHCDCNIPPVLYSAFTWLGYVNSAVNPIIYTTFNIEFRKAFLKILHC
# Description: as §8
# D1 receptor = D1 receptor (Homo sapiens (Human), UniProt P21728); test: [35S]GTPγS binding assay for D1 receptor; type: biochemical
# Sequence of D1 receptor (P21728 whole entry): as the sequence (O77680 whole entry) above, with I311N counted along it
# dopamine D2 receptor [2] = molecular target: T1, dopamine D2 receptor; test: Inhibition property on dopamine D2 receptor, cAMP detection in CHO cells stably expressing D2 receptor; type: cell-based; settings: 10 μM Forskoline and 10 μM dopamine, read-out: D2 receptor Antagonist IC50
# Description: 2. Determination of the Inhibition Property of Hexahydrodibenzo[a,g]Quinolizine Compound of General Formula I and Derivatives Thereof on Dopamine D2 Receptor.
# (1) The Experimental Method
# Each medicament was dissolved in serum-free F12 culture medium containing 100 μM of IBMX. CHO cells which can stably express D2 receptor were pre-incubated at 37° C. for 10 min, and then 10 μM Forskoline and 10 μM Dopanie were added at the same time to react for 10 min. 100 μL, of pre-cooled 1 M of HClO4 was added and the reaction was terminated at 4° C. for 1 hour. 20 μL of 2 M K2CO3 was added to neutralize the reaction. […] A certain amount of the supernatant was taken for cAMP detection.
# 5-HT1A receptor = 5-HT1A receptor (Homo sapiens (Human), UniProt P08908); test: Affinity on 5-HT1A receptor, competition with [3H] 8-OH-DPAT; type: binding
# Sequence of 5-HT1A receptor (P08908 whole entry): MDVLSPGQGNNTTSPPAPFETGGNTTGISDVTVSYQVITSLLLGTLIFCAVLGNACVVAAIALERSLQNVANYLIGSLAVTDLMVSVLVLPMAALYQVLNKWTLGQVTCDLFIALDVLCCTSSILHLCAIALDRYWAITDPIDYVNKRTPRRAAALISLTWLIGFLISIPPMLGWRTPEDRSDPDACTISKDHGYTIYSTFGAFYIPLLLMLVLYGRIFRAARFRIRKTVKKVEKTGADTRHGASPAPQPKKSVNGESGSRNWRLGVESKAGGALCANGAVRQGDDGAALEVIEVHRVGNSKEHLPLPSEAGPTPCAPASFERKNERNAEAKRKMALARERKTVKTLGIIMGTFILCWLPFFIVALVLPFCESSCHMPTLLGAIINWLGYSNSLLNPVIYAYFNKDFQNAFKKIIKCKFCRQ
# Description: as §1, §2, §3, §5
# 8-OH-DPAT; 5-HT1A receptor protein expressed in HEK-293 cells;
# as §6, §7
SMILES,D1 receptor inhibition ratio (%) (dopamine D1 receptor),IC50 (dopamine D1 receptor),Ki (dopamine D1 receptor),D2 receptor inhibition ratio (%) (D2 dopamine receptor),Ki (D1 dopamine receptors),other results
"Oc1cc2c(cc1O)C(c1ccccc1)CNCC2 (stereo not shown) [SKF38393, reference compound]",–,–,–,–,–,"Emax (D1 receptor; [35S]GTPγS binding, read-out: D1 agonist Emax %): 100%"
"COc1cc2c(cc1OC)C1Cc3cc(C)cc(C)c3CN1CC2 (racemic) [DC037018, (±)-2,3-bimethoxy-9,11-dimethyl-5,8,13,13a-tetrahydro-6H-dibenzo[a,g]quinolizine]",82.5%,2920 nM,1440 nM,77.4%,–,IC50 (dopamine D2 receptor [2]): 15600 nM
"COc1cc2c(cc1O)[C@@H]1Cc3cc(C)cc(C)c3CN1CC2 [DC037031, S-(−)-2-hydroxy-3-methoxy-9,11-dimethyl-5,8,13,13a-tetra-hydro-6H-dibenzo[a,g]quinolizine]",98.99%,56.4 nM,28.9 nM,90.10%,28.9 ± 2.73 nM,affinity on dopamine D1 receptor (in words) (dopamine D1 receptor): strong affinity; IC50 (D2 dopamine receptor): 456 nM; Ki (D2 dopamine receptor): 161 nM; affinity on dopamine D2 receptor (in words) (D2 dopamine receptor): strong affinity; Ki (dopamine D2 receptor [1]): 161 ± 21.1 nM
"COc1cc2c(cc1OC)CN1CCc3cc(O)c(O)cc3C1C2 (racemic) [DC037024, (±)-2,3-bihydroxy-10,11-bimethoxy-5,8,13,13a-tetrahydro-6H-dibenzo[a,g]quinolizine]",91.3%,1500 nM,741 nM,76.2%,–,IC50 (dopamine D2 receptor [2]): 591 nM
"COc1cc2c(cc1OC)C1Cc3c(OC)ccc(OC)c3CN1CC2 (racemic) [DC037003, (±)-2,3,9,12-tetramethoxy-5,8,13,13a-tetrahydro-6H-dibenzo[a,g]quinolizine]",98.0%,370 nM,247 nM,75.75%,–,IC50 (dopamine D2 receptor [2]): 3300 nM
"COc1cc2c(cc1OC)C1Cc3cc(OC)c(OC)c(OC)c3CN1CC2 (racemic) [DC037002, (±)-2,3,9,10,11-pentamethoxyl-5,8,13,13a-tetrahydro-6H-dibenzo[a,g]quinolizine]",77.95%,–,–,27.05%,–,–
"COc1cc2c(cc1OC)[C@@H]1Cc3cc4c(cc3[C@H](C)N1CC2)OCO4 [DC037020, (8S,14S)-2,3-bimethoxy-8-methyl-10,11-methylenedioxy-5,8,13,13a-tetrahydro-6H-dibenzo[a,g]quinolizine]",47.3%,–,–,57.1%,–,–
"COc1cc2c(cc1OC)CN1CCc3cc4c(cc3[C@@H]1C2)OCO4 [DC037015, S-(−)-2,3-methylenedioxy-10,11-bimethoxy-5,8,13,13a-tetrahydro-6H-dibenzo[a,g]quinolizine]",59.2%,–,–,59.3%,–,–
"COc1cc2c(cc1OC)CN1CCc3cc4c(cc3C1C2)OCO4 (racemic) [DC037021, (±)-2,3-methylenedioxy-10,11-bimethoxy-5,8,13,13a-tetrahydro-6H-dibenzo[a,g]quinolizine]",56.5%,–,–,44.5%,–,–
"COc1cc2c(cc1OC)[C@@H]1Cc3cc4c(cc3CN1CC2)OCO4 [DC037011, S-(−)-2,3-bimethoxy-10,11-methylenedioxy-5,8,13,13a-tetrahydro-6H-dibenzo[a,g]quinolizine]",59.3%,–,–,41.7%,–,–
"COc1cc2c(cc1OC)C1Cc3cc4c(cc3CN1CC2)OCO4 (racemic) [DC037014, (±)-2,3-bimethoxy-10,11-methylenedioxy-5,8,13,13a-tetrahydro-6H-dibenzo[a,g]quinolizine]",58.2%,–,–,25.8%,–,–
"COc1cc2c(cc1OC)C1Cc3cc(O)c(O)cc3CN1CC2 (racemic) [DC037022, (±)-2,3-bimethoxy-10,11-bihydroxy-5,8,13,13a-tetrahydro-6H-dibenzo[a,g]quinolizine]",89.0%,1010 nM,498 nM,10.6%,–,–
"c1c2c(cc3c1OCO3)CN1CCc3cc4c(cc3[C@@H]1C2)OCO4 [DC037012, S-(−)-2,3,10,11-bimethylenedioxy-5,8,13,13a-tetrahydro-6H-dibenzo[a,g]quinolizine]",95.8%,300 nM,148 nM,89.3%,–,IC50 (D2 dopamine receptor): 1240 nM; Ki (D2 dopamine receptor): 240 nM

# The next lines start with results.
D1 receptor inhibition ratio (%) (dopamine D1 receptor),IC50 (dopamine D1 receptor),Ki (dopamine D1 receptor),D2 receptor inhibition ratio (%) (D2 dopamine receptor),Ki (D1 dopamine receptors),SMILES,other results
99.99%,9.85 nM,5.18 nM,76.21%,2.53 ± 0.16 nM,"COc1cc2c(c(OC)c1)CN1CCc3cc(OC)c(O)cc3[C@@H]1C2 [DC037079, (S)-2-hydroxy-3,9,11-trimethoxy-5,8,13,13a-tetrahydro-6H-dibenzo-[a,g]quinolizine]","affinity on dopamine D1 receptor (in words) (dopamine D1 receptor): strong affinity; affinity on dopamine D2 receptor (in words) (D2 dopamine receptor): strong affinity; D2 Inhibition (%) (dopamine D2 receptor [1]): 83.31%; D1 antagonist Imax % (D1 receptor; [35S]GTPγS binding): 94.2 ± 1.5%; IC50 (D1 receptor; [35S]GTPγS binding, read-out: D1 antagonist IC50): 1400 ± 200 nM; D1 receptor antagonistic activity (in words) (D1 receptor; summary of Table 10): D1 receptor antagonistic activity; D1 receptor selectivity (in words) (D1 receptor; summary of Table 10): good D1 receptor selectivity"
99.68%,13.3 nM,6.72 nM,84.30%,6.72 ± 0.34 nM,"COc1ccc(OC)c2c1C[C@H]1c3cc(O)c(O)cc3CCN1C2 [DC037035, S-(−)-2,3-bihydroxy-9,12-bimethoxy-5,8,13,13a-tetrahydro-6H-dibenzo[a,g]quinolizine]",affinity on dopamine D1 receptor (in words) (dopamine D1 receptor): strong affinity; affinity on dopamine D2 receptor (in words) (D2 dopamine receptor): strong affinity; D2 Inhibition (%) (dopamine D2 receptor [1]): 84.30%
–,–,–,–,74.5 ± 3.85 nM,"COc1cc2c(cc1OC)[C@@H]1Cc3c(CO)c(OC)cc(OC)c3CN1CC2 [DC037076, (S)-2,3,9,11-tetramethoxy-12-hydroxymethyl-5,8,13,13a-tetra-hydro-6H-dibenzo[a,g]quinolizine]",D2 Inhibition (%) (dopamine D2 receptor [1]): 1.02%
22.60%,–,–,73.07%,17.3 ± 0.54 nM,"COc1c(O)ccc2c1CN1CCc3cc4c(cc3[C@@H]1C2)OCC4 [DC037081, S-(−)-9-methoxyl-10-hydroxy-2,3,5,8,13,13a-hexahydro-8H-benzo[3,2,a,g]furanquinolizine]",Ki (dopamine D2 receptor [1]): 147 ± 10.2 nM
–,484 nM,248 nM,–,–,"COc1ccc(OC)c2c1C[C@H]1c3cc4c(cc3CCN1C2)CCO4 [DC037034, S-(+9,12-bimethoxy-2,3,5,8,13,13a-hexahydro-8H-benzo[3,2,a,g]furanquinolizine]",Ki (5-HT1A receptor): 497 nM
91.94%,–,–,13.75%,–,"Cc1ccc(C)c2c1CC1c3cc4c(cc3CCN1C2)OCO4 (stereo not drawn) [DC037033, S-(−)-2,3-methylenedioxy-9,12-dimethyl-5,8,13,13a-tetrahydro-6H-dibenzo[a,g]quinolizine]",–
97.79%,142 nM,74.5 nM,1.02%,64.1 ± 4.43 nM,"COc1cc2c(c(OC)c1)CN1CCc3cc4c(cc3[C@@H]1C2)OCO4 [DC037078, (S)-2,3-methylenedioxy-9,11-bimethoxy-5,8,13,13a-tetrahydro-6H-dibenzo[a,g]quinolizine]",D2 Inhibition (%) (dopamine D2 receptor [1]): 39.50%
